Measured values from patent US20170368089A1, “COMPOSITION FOR PREVENTING OR TREATING COLITIS” (UNIVERSITY-INDUSTRY COOPERATION GROUP OF KYUNG HEE …, priority 2012, published 2017).

Columns and labels:
[1] = test system: IL-1 beta; experiment: IL-1 beta expression in colon tissue (ELISA), TNBS colitis, first experiment; assay type: in vivo, ICR male mice; settings: TNBS-treated mice, 10 mg/kg orally, 3 days
Description: (§1) Among the experimental groups, one group was set as a normal group, and for the experimental animals in other groups, colitis was induced with 2,4,6-trinitrobenzenesulfonic acid (TNBS). In detail, after lightly anesthetizing the experimental animals with ether, 0.1 ml of the solution prepared by mixing […] of 2,4,6-Trinitrobenzene sulfonic acid (NBS) solution with 50% ethanol was injected into the colon through the anus using a syringe having 1 ml volume and oval point, respectively; and then, the syringe was vertically picked up, and then, maintained for 30 seconds to induce the inflammation. Meanwhile, 0.1 ml of normal saline solution was orally administered to the normal group. Since then, from the next day, the sample dissolved in normal saline solution was orally administered in the volume that was decided in advance one time a day for 3 days. At the next day after completing the sample administration, the experimental animals were suffocated to death with carbon dioxide, the colon from appendix to the region just before the anus was removed from the colon region.
(§2) 250 μl of RIPA butter including protease inhibitor cocktail was added to 100 mg of the colon tissue of experimental animal, and then, the colon tissue was homogenized. Since then, the homogenized colon tissue was centrifuged under the conditions of 4° C. and 13000 rpm for 15 minutes to obtain supernatant. While the supernatant was stored at −80° C., the expression amounts of IL-1 beta, IL-6, and TNF-alpha were measured using a 96-well ELISA plate kits (Pierce Biotechology, Inc., Rockford, Ill., USA).

[2] = test system: IL-6; experiment: IL-6 expression in colon tissue (ELISA), TNBS colitis, second experiment; assay type: in vivo, ICR male mice; settings: Table 9, extract-based samples, TNBS-treated mice, 10 mg/kg orally, 3 days
Description: as §1, with “At the next day after completing the sample administration, the experimental animals were suffocated to death with carbon dioxide, the colon from appendix to the region just before the anus was removed from the colon region.” left out
as §2, with “Since then, the homogenized colon tissue was centrifuged under the conditions of 4° C. and 13000 rpm for 15 minutes to obtain supernatant.” left out

[3] = test system: IL-1 beta; experiment: IL-1 beta expression in colon tissue (ELISA), TNBS acute colitis, third experiment; assay type: in vivo, male mice (C57BL/6); settings: Table 12; TNBS-treated mice, 10 mg/kg orally, 3 days
Description: Meanwhile, 0.1 ml of normal saline solution was orally administered to the normal group. Since then, from the next day, the sample dissolved in normal saline solution was orally administered in the volume that was decided in advance one time a day for 3 days. At the next day after completing the sample administration, the experimental animals were suffocated to death with carbon dioxide, and the colon from appendix to the region just before the anus was removed from the colon region. At this time, as a medicine sample, the experiments using the butanol-soluble fraction of the Anemarrhena asphodeloides Bunge extract, Mangiferin, and a combined extract were separately performed at a distance of time, respectively, and the effects of the medicine samples on preventing or treating colitis were reasonably analyzed based on the group supplied with normal saline solution instead of a specific medicine in the model animals with acute colitis induced by TNBS for each of the experiments. […] While the supernatant was stored at −80° C., the expression amounts of IL-1 beta, IL-6, and TNF-alpha, which were proinflammatory cytokines, and the expression amount of IL-10, which was anti-inflammatory cytokine, were measured using a 96-well ELISA plate kits (Pierce Biotechology, Inc., Rockford, Ill., USA).

[4] = test system: TNF-alpha; experiment: TNF-alpha expression in colon tissue (ELISA), TNBS colitis, second experiment; assay type: in vivo, ICR male mice; settings: Table 9, extract-based samples, TNBS-treated mice, 10 mg/kg orally, 3 days
Description: as §1, with “At the next day after completing the sample administration, the experimental animals were suffocated to death with carbon dioxide, the colon from appendix to the region just before the anus was removed from the colon region.” left out
as §2, with “Since then, the homogenized colon tissue was centrifuged under the conditions of 4° C. and 13000 rpm for 15 minutes to obtain supernatant.” left out

[5] = test system: Myeloperoxidase (MPO); experiment: MPO activity of colon tissue (mouse MPO ELISA kit), TNBS colitis, first experiment; assay type: in vivo, ICR male mice; settings: TNBS-treated mice, 10 mg/kg orally, 3 days
Description: as §1
200 μl of lysis buffer was added to 100 mg of colon tissue, and then, the colon tissue was homogenized. Since then, the homogenized colon tissue was centrifuged under the conditions of 4° C. and 13000 rpm for 15 minutes, and then, the supernatant thereof was obtained. In the supernatant, the MPO activity was measured using a mouse MPO assay ELISA kit (Hbt HK210, USA). 100 μl of the supernatant was added in a 96 well plate, and then, reacted at room temperature for 1 hour. After completing the reaction, the plate was overturned and emptied; was repeatedly washed three times with 200 μl of washing buffer solution; 100 μl of diluted tracer was added thereto; and then the reaction was performed at room temperature for 1 hour. After completing the reaction, the plate was overturned and emptied; and then each well in the plate was washed using 200 μl of washing buffer solution. After repeatedly performing the washing processes three times using 200 μl of washing buffer solution, 100 μl of diluted streptavidin-peroxidase conjugate was added thereto, and then, the reaction was performed at room temperature for 1 hour. After completing the reaction, the plate was overturned and emptied, and then, each well in the plate was washed with 200 μl of washing buffer solution. After the washing processes were repeatedly performed three times using 200 μl of washing buffer solution, 100 μl of TMB substrate solution was added thereto; the plate was wrapped in an aluminum foil to block out the light; and then, the reaction was performed at room temperature for 30 minutes. Since then, 100 μl of a stop solution was added to stop the reaction, and then, the absorbance was measured at 450 nm using an ELISA reader.

[6] = test system: TNF-alpha; experiment: TNF-alpha expression in colon tissue (ELISA), TNBS colitis, first experiment; assay type: in vivo, ICR male mice; settings: Table 4 (group 1), TNBS-treated mice, 10 mg/kg orally, 3 days
Description: as §1, §2

Nc1ccc(O)c(C(=O)O)c1 [mesalazine, Mesalazine]
IL-1 beta conc. ([1]; Table 4 (group 1)): 19.8 ± 14.4 pg/mg | IL-1 beta conc. ([1]; Table 5 (group 2)): 31.1 ± 2.9 pg/mg | IL-6 conc. [2]: 1.32 ± 0.11 pg/mg | IL-1β (Percentage to group supplied with normal saline solution after treating TNBS) [3]: 30.3% | TNF-alpha conc. [4]: 23.79 ± 2.82 pg/mg | MPO activity ([5]; Table 2 (group 1)): 1.8 ± 0.2 μUnit/mg | MPO activity ([5]; Table 3 (group 2)): 0.2 ± 0.1 μUnit/mg | TNF-alpha conc. [6]: 26.1 ± 8.8 pg/mg
